Laboratory results as given in US7285555B2, “6-aryl-7-halo-imidazo[1,2-a]pyrimidines as anticancer agents” (Wyeth Holdings Corporation, priority 2003, dated 2007).

Tests used:
MAP-rich tubulin = assay: Tubulin polymerization test procedure with MAP-rich tubulin; format: biochemical, bovine; conditions: MAP-rich tubulin with 1 mM GTP, compound 0.3 μM, at 20 min
Method: (§1) Medium is RPMI-1640 with L-glutamine, supplemented with 10% heat-inactivated fetal calf serum, 100 units/mL penicillin, and 100 μg/mL streptomycin (Gibco, Grand Island, N.Y.). Microtubule-associated protein (MAP)-rich tubulin, containing about 70% tubulin and 30% MAPs (#ML113), and highly purified tubulin (>99% pure, #TL238), both from bovine brain, are obtained from Cytoskeleton, Inc., Denver, Colo. PEM buffer (80 mM piperazine-N,N′-bis[2-ethanesulfonic acid], pH 6.9, 1 mM ethylene glycol-bis(β-aminoethyl ether)-N,N,N′,N′-tetraacetic acid, 1 mM magnesium chloride) and guanosine 5′-triphosphate (GTP) are also obtained from Cytoskeleton. [^3H]paclitaxel, specific activity 14.7 Ci/mmol, is purchased from Moravek Biochemicals (Brea, Calif.). [^3H]vinblastine, specific activity 9.60 Ci/mmol and MicroSpin G-50 columns are obtained from Amersham Biosciences (Piscataway, N.J.). […] Other reagents are obtained from Sigma (St. Louis, Mo.).
MAP-rich tubulin is dissolved in ice-cold PEM buffer containing 1 mM GTP (GPEM buffer) at a concentration of 1.3 mg/mL. The solution is centrifuged at top speed in an Eppendorf model 5415C microcentrifuge (Brinkmann Instruments, Westbury, N.Y.) for 10 min at 40 immediately before use. The tubulin solution is added to wells of a ½-area 96-well plate (Costar No. 3696, Corning, Inc., Corning, N.Y.) already containing the compounds of interest. Each compound is tested in duplicate at a final concentration of 0.3 μM in a volume of 110 μL per well. The final DMSO concentration in all wells is 0.3%. Control reactions, which receive compound solvent only, are done in quadruplicate. The plate is put in a SpectraMax Plus plate reader (Molecular Devices Corp. Sunnyvale, Calif.) thermostated at 240 and the absorbance of each well at 340 nm, a measure of the appearance of turbidity due to tubulin polymer formation, is determined every minute for 60 minutes. The absorbance at time 0 for each well is subtracted from each of the subsequent absorbance readings for that well, and then the duplicates are averaged.
In this assay, control reactions with MAP-rich tubulin show an S-shaped absorbance profile characterized by three phases: first, a lag phase during which no change in absorbance occurs; second, a polymerization phase in which absorbance increases; and third, a plateau phase in which absorbance has reached a maximum and little or no further change occurs. Polymerization enhancers such as paclitaxel and docetaxel shorten or eliminate the lag phase, increase the rate of the polymerization phase, and often increase the height of the plateau. […] This has been expressed quantitatively in Table 6 by dividing the mean A340 of each sample at 20 min by the mean A340 of the control at 20 min to give a fold enhancement over control. […]

[1] = system: polymerized tubulin (microtubules); assay: Competitive binding test procedure, [3H]paclitaxel; design: species or system bovine; conditions: [3H]paclitaxel 2.1 μM
Method: as §1
(§2) The binding of examples of this invention to highly purified tubulin is studied by competitive inhibition methods. […] To study possible competition at the taxane site, on the other hand, polymerized tubulin (microtubules) is used because paclitaxel binds preferentially to microtubules.
For competition with [^3H]paclitaxel, highly purified tubulin is dissolved in PEM buffer containing 0.75 M glutamate and 25 μM dideoxy-GTP; final protein concentration is 0.25 to 0.35 mg/mL (2.5 to 3.5 μM). These conditions foster the rapid formation of short, stable microtubule polymers (Hamel, E., del Campo, A. A., and Lin, C. M. Stability of tubulin polymers formed with dideoxyguanosine nucleotides in the presence and absence of microtubule-associated proteins. J. Biol. Chem., 259: 2501-2508, 1984). […] The reactions are then centrifuged at top speed in an Eppendorf 5415C microfuge for 20 min at room temperature in order to pellet the microtubule protein. Triplicate aliquots of each supernatant are mixed with scintillation fluid and counted in a liquid scintillation spectrometer. From the amount of radioactivity in the supernatants and the measured total starting radioactivity, the amount of [^3H]paclitaxel bound to pelleted microtubule protein is calculated. The ability of each competitor to inhibit radioligand binding to pelleted protein is expressed as a percent of controls without any competitor.

[2] = system: highly purified tubulin (tubulin heterodimer); assay: Competitive binding test procedure, [3H]vinblastine; design: species or system bovine; conditions: competitor 100 μM, [3H]vinblastine 100 nM
Method: as §1, §2
(§3) Highly purified tubulin is dissolved in PEM buffer without GTP and used at a final concentration of 1.0 to 1.3 mg/ml (10 to 13 μM). […] These solutions are incubated at 240 for 1 hr and then applied to MicroSpin G-50 columns which are centrifuged for 2 min at 3000 rpm in an Eppendorf 5415C microfuge. An aliquot of each column effluent (containing tubulin and bound radioligand) is mixed with scintillation fluid and counted in a liquid scintillation spectrometer. […] Quadruplicates are averaged, and the ability of the competitor to inhibit the binding of the radioligand is expressed as a percentage of control binding in the absence of any competitor.

[3] = system: highly purified tubulin (tubulin heterodimer); assay: Competitive binding test procedure, [3H]colchicine; design: species or system bovine; conditions: competitor 100 μM, [3H]colchicine 50 nM
Method: as §1, §2, §3

pure tubulin = assay: Tubulin polymerization test procedure with pure tubulin; format: biochemical, bovine; conditions: for polymerization of pure tubulin without GTP (in words): pure tubulin without added GTP
Method: as §1
The procedure with pure tubulin is similar except for the following changes. […] The supernatant after centrifugation is dispensed to a ½-area 96-well plate already containing compounds. Each compound is tested in duplicate at a final concentration of 24.3 μM. The plate reader μs thermostated at 35°.

Row | Compound | A340 Compound / A340 Control (fold enhancement over control) (MAP-rich tubulin) | [3H]Paclitaxel binding, Mean, percent of binding to control without competitor ([1]; competitor 20 μM) [%] | [3H]Paclitaxel binding, Mean, percent of binding to control without competitor ([1]; competitor 20 μM, listed as example 6) | [3H]Vinblastine binding, Mean, percent of binding to control without competitor [2] [%] | [3H]Colchicine binding, Mean, percent of binding to control without competitor [3] [%] | [3H]Colchicine binding, Mean, percent of binding to control without competitor ([3]; listed as example 6) | polymerization of pure tubulin without GTP (in words) (pure tubulin) | A340 at 0 min (pure tubulin; pure tubulin, no added GTP, compound 24.3 μM, 0 min) | A340 at 5 min (pure tubulin; pure tubulin, no added GTP, compound 24.3 μM, 5 min) | A340 at 10 min (pure tubulin; pure tubulin, no added GTP, compound 24.3 μM, 10 min) | A340 at 15 min (pure tubulin; pure tubulin, no added GTP, compound 24.3 μM, 15 min) | A340 at 20 min (pure tubulin; pure tubulin, no added GTP, compound 24.3 μM, 20 min) | [3H]Paclitaxel binding, Mean, percent of binding to control without competitor ([1]; competitor unlabeled paclitaxel 5 μM) [%]
1 | CN(C)CCCOc1cc(F)c(-c2c(Cl)nc3nccn3c2C2CCCCCC2)c(F)c1 [Example 6, 3-[4-(7-Chloro-5-cycloheptylimidazo[1,2-a]pyrimidin-6-yl)-3,5-difluorophenoxy]-N,N-dimethylpropan-1-amine] | 1.7 | 92 | does not inhibit | 17 | 84 | does not inhibit | induces polymerization | 0 | 0.15 | 0.19 | 0.19 | 0.19 | –
2 | CC(=O)O[C@H]1C(=O)[C@@]2(C)[C@H]([C@H](OC(=O)c3ccccc3)[C@]3(O)C[C@H](OC(=O)[C@H](O)[C@@H](NC(=O)c4ccccc4)c4ccccc4)C(C)=C1C3(C)C)[C@]1(OC(C)=O)CO[C@@H]1C[C@@H]2O [Paclitaxel, reference compound] | 1.8 | – | – | 92 | 93 | – | able to induce polymerization | – | – | – | – | – | 35
